What all share (format): cell-based
One series relates to Bacillus pumilus. The series is described as follows: microbe, parasite or virus in culture. As to conditions: potato soft rot pathogen. As for the experimental part: (§1) The antimicrobial activity of clostrubin A (1) and clostrubin B (2) against the serious potato pathogens Bacillus pumilus (causing potato soft rot), Clavibacter michiganensis ssp. sepedonicus (causing potato ring rot), and Streptomyces scabies (causing potato scab) was tested.

In another series the test system is Streptomyces scabies. In words: microbe, parasite or virus in culture. The following applies: Streptomyces scabiei; potato scab pathogen. As for the experimental part:
as §1

The test system of series [1] is Clavibacter michiganensis ssp. sepedonicus. The series is described as follows: activity against potato pathogens, MIC. As to conditions: read-out: MIC Clavibacter michiganensis ssp. sepedonicus.
A further series deals with Escherichia coli. In words: standardized antibiotic assay, MIC, Ec. The following applies: for MIC: Escherichia coli (Gram-negative). As for the experimental part:
(§2) The activity and more specifically the bioactivity of the compounds according to the present invention can be assessed using appropriate assays known to those skilled in the art, e.g. in vitro or in vivo assays. For instance, the antimicrobial activity may be determined using a standardized antibiotic assay^[1], and the antiproliferative and/or cytotoxic activity may be determined via a standardized assay as described in reference.
(§3) The antibiotic activity of clostrubin A was tested using a standardized antibiotic assay^[1]. […]. A similar antimicrobial activity as against MRSA was observed against Mycobacterium smegmatis (M smegmatis), Mycobacterium aurum (M aurum), Mycobacterium vaccae (M vaccae) and Mycobacterium fortuitum (M fortuitum)—see, Table 3.

The subject of another series is Bs. The series is described as follows: standardized antibiotic assay, MIC, Bs. The procedure:
as §2, §3

Series [2] relates to methicillin-resistant Staphylococcus aureus (MRSA). In words: standardized antibiotic assay, MIC, MRSA. The procedure: as §2, §3
The subject of series [3] is vancomycin-resistant enterococci (VRE). In words: standardized antibiotic assay, MIC, VRE. As to conditions: Enterococcus. As for the experimental part: as §2, §3
Another series concerns Mycobacterium aurum. The series is described as follows: anti-mycobacterial activity, MIC. The following applies: Mycolicibacterium aurum. As for the experimental part: as §2, §3
In a further series the test system is Mycobacterium fortuitum. In words: anti-mycobacterial activity, MIC. The following applies: Mycolicibacterium fortuitum. The procedure: as §2, §3
For the next series, the system named is Mycobacterium smegmatis. The series is described as follows: anti-mycobacterial activity, MIC. The following applies: Mycolicibacterium smegmatis. As for the experimental part: as §2, §3
The next series deals with Mycobacterium vaccae. In words: anti-mycobacterial activity, MIC. The following applies: Mycolicibacterium vaccae. The procedure: as §2, §3
A further series has as its system HUVEC. In words: antiproliferative effect, standardized assay.
Description: as §2
(§4) Antiproliferative and cytotoxic activity of clostrubin A was tested in a standardized assay^[2].

The subject of a further series is K-562. The series is described as follows: antiproliferative effect, standardized assay. As to conditions: Homo sapiens, K562.
Description: as §2, §4

Series [4] can be described thus: cytotoxicity, standardized assay. The following applies: human, HeLa cells.
Description: as §2, §4

The test system of the next series is HeLa. In words: cytotoxicity, standardized assay. As to conditions: summary of Table 4 (HeLa).
Description: as §2, §4

The structures appear in SMILES notation. In brackets after ≈: the same amount, converted by molar mass. Like-named read-outs stand apart in the source and are kept apart here.

What is called GI50 is the concentration giving 50% growth inhibition. A high value points to lower sensitivity of the cells. In general, CC50 refers to the concentration giving 50% cytotoxicity. Read a high CC50 as better tolerance by the cells.

Take `COCC(O)C(O)C(O)C(=O)c1c(C)cc2c(c1O)C(=O)c1c(O)cc(C)c3c1c-2c(O)c1c(O)c(C(C)=O)ccc13` (stereo not drawn) [Compound 2, clostrubin B]: the MIC with Bacillus pumilus amounted to 0.542 µM (≈ 0.312 µg/mL); in the series with Streptomyces scabies, 0.271 µM (≈ 0.156 µg/mL); in [1], 0.542 µM (≈ 0.312 µg/mL).
In the case of `O=C(O)c1cn(C2CC2)c2cc(N3CCNCC3)c(F)cc2c1=O` [Cip, ciprofloxacin, reference compound], the MIC in the series on Escherichia coli worked out at 0.01 µM (≈ 0.00331 µg/mL); against Bs it was 0.08 µM (≈ 0.0265 µg/mL); in [2] (read-out: MIC MRSA), 37 µM; in [3] (read-out: MIC VRE) it was 2.3 µM; against Mycobacterium aurum it was 0.3 µM (≈ 0.0994 µg/mL); against Mycobacterium fortuitum it was 0.6 µM (≈ 0.199 µg/mL). Also, the MIC in the series with Mycobacterium smegmatis amounted to 4.71 µM (≈ 1.56 µg/mL); in the series with Mycobacterium vaccae, 1.2 µM (≈ 0.398 µg/mL).
For `CC(=O)c1ccc2c(c1O)c(O)c1c3c(c(O)cc(C)c32)C(=O)c2c(O)cc(C)cc2-1` [Compound 1, clostrubin A], the MIC against Escherichia coli is greater than 60 µM; in the series with Bs, 0.075 µM (≈ 0.0311 µg/mL); in series [2] (read-out: MIC MRSA), 0.12 µM; in series [2] (read-out: minimum inhibitory concentration (MIC) MRSA) it was 0.05 mg/L; in series [3] (read-out: MIC VRE) it was 0.97 µM; in [3] (read-out: minimum inhibitory concentration (MIC) VRE), 0.4 mg/L. The MIC was 0.12 µM (≈ 0.0497 µg/mL) against Mycobacterium aurum; 0.12 µM (≈ 0.0497 µg/mL) with Mycobacterium fortuitum; 0.48 µM (≈ 0.199 µg/mL) with Mycobacterium smegmatis; 0.12 µM (≈ 0.0497 µg/mL) in the series with Mycobacterium vaccae; 0.047 µM (≈ 0.0195 µg/mL) against Bacillus pumilus; 0.0947 µM (≈ 0.0392 µg/mL) against Streptomyces scabies. Besides, the MIC in series [1] was 0.0947 µM (≈ 0.0392 µg/mL). Also, the “antibiotic activity against Escherichia coli (in words)” value in the series with Escherichia coli (Gram-negative organism) is “ineffective”. In addition, the 50% growth inhibitory concentration (GI50) in the series with HUVEC (Homo sapiens, HUVEC) stood at 1.2 µM; in the series with K-562 it was 2.66 µM. In addition, the “antiproliferative activity (in words)” value in the series with HUVEC (summary of Table 4 (HUVEC, K-562)) is “moderate”. The compound further registered a CC50 in series [4] of 1.69 µM. Further, the “cytotoxic activity (in words)” value with HeLa is recorded as “moderate”.

(Values after patent US20160340286A1, “CLOSTRUBINS” (LEIBNIZ-INSTITUT FÜR NATURSTOFF-FORSCHUNG UND …, priority 2014, published 2016).)
